Measurements: patent US6300320A, “Modulation of c-jun using inhibitors of protein kinase C” (Isis Pharmaceuticals, Inc., priority 1999, dated 2001)

Tested on: c-jun mRNA expression in A549 cells
Experiment: Phorbol ester (TPA) mediated AP-1 gene expression in A549 cells, Northern blotting
Assay type: cell-based
Conditions: Homo sapiens, 0.5 h, 100 nM TPA for 30 minutes, no oligo, basal = 100%
Description: The effect of PKC-α reduction on AP-1 transcription factor components was determined. 12-O-tetradecanoylphorbol-13-acetate (TPA) causes a time dependent accumulation of mRNA transcripts of multiple members of AP-1, including c-jun, jun-B and c-fos.
A549 cells were treated with 100 nM ISIS 9606 (SEQ ID NO. 2) or ISIS 13009 (SEQ ID NO. 23) and DOTMA/DOPE as described in Example 13. Cells were then washed and allowed to recover for an additional 68 hours. Cells were then treated with 100 nM TPA for 30 minutes and the expression of either c-fos, jun-B, c-jun or G3PDH mRNA expression was determined by Northern blotting.
Total RNA was extracted from cells and resolved on agarose gels as described in Example 6. These were transferred to nylon membrane (Biorad, Hercules, Calif.) and probed with ^32 P radiolabelled cDNA probes for different PKC isozymes. Additionally, gels were probed with ^32 P radiolabelled cDNA probes for c-fos, c-jun, and junB (American Type Culture Collection, Manassas, Va.). Gels were routinely stripped and reprobed with radiolabelled human […]-3-phosphate dehydrogenase (G3PDH) probe to confirm equal loading. Radioactive bands were quantified using a Phospholmager (Molecular Dynamics, Sunnyvale, Calif.). […] A scrambled control oligonucleotide was without effect on the up-regulation of any AP-1 family member. […]

## CCCCCCCCCCCCCC(=O)O[C@@H]1[C@@H](C)[C@@]2(O)[C@@H](C=C(CO)C[C@]3(O)C(=O)C(C)=C[C@@H]23)[C@@H]2C(C)(C)[C@]12OC(C)=O [TPA, 12-O-tetradecanoylphorbol-13-acetate]
  activity at 0.1 µM: 353%
